Data on four compounds can be found in paper PMC3596085 (International journal for parasitology, drugs and drug …, 2012).

Data set [1] concerns T. cruzi CYP51. Conditions: standard CYP51 reaction conditions; ref Lepesheva et al., 2007; cited from earlier work.
Data set [2] has as its system Trypanosoma cruzi. Conditions: ref Villalta et al., submitted for publication; cited from earlier work.
Data set [3] has as its system T. brucei CYP51. The conditions noted are these: standard CYP51 reaction conditions; ref Lepesheva et al., 2007; cited from earlier work.
Data set [4] relates to human CYP51. Description: Reconstitution of CYP51 activity in vitro. Type of data set: biochemical. Conditions: 60′ reaction, lanosterol.
For data set [5], the target named is T. cruzi CYP51 (Trypanosoma cruzi, UniProt Q7Z1V1). Put plainly: CYP51 spectral titration. Format: binding.
In data set [6] the target is T1, human CYP3A4 (Homo sapiens, UniProt P08684). Description: Inhibitory effect on CYP3A4.
Data set [7] concerns NIH/3T3 mouse embryonic fibroblasts. Description: Growth inhibition assay using 5-bromodeoxyuridine incorporation. Format: cell-based. Conditions: 50 μM, 24 h treatment, BrdU incorporation, vs DMSO. (In general: Incorporation of labelled thymidine or its analogues reports DNA synthesis.)
Data set [8] in a line: VNI oral pharmacokinetics in mouse plasma. Type of data set: in vivo. Conditions: 25 mg/kg.
Data set [9] concerns T. brucei. Conditions: ref Lepesheva et al., 2010b; cited from earlier work.
The test system of data set [10] is T. cruzi CYP51 gene expression. The conditions noted are these: ref Lepesheva et al., 2010a; cited from earlier work.
For data set [11], the system named is human CYP51. The conditions noted are these: standard CYP51 reaction conditions; ref Lepesheva et al., 2008; cited from earlier work.
The nature of data set [12]: Acute mice toxicity study. Conditions: female, Swiss Webster, mouse, in vivo, po. Type of data set: in vivo, mouse.
The subject of data set [13] is Female Swiss Webster mice. Description: Acute mice toxicity study. Type of data set: in vivo, mouse. The conditions noted are these: oral, up to 400 mg/kg, up to 48 h.
Data set [14] concerns the target T1, human CYP3A4.
The nature of data set [15]: Growth inhibition assay using 5-bromodeoxyuridine incorporation. Type of data set: cell-based, mouse. The conditions noted are these: mouse.

Where two headings read alike, the source gives them in different places.

T1 sequence (P08684 whole entry): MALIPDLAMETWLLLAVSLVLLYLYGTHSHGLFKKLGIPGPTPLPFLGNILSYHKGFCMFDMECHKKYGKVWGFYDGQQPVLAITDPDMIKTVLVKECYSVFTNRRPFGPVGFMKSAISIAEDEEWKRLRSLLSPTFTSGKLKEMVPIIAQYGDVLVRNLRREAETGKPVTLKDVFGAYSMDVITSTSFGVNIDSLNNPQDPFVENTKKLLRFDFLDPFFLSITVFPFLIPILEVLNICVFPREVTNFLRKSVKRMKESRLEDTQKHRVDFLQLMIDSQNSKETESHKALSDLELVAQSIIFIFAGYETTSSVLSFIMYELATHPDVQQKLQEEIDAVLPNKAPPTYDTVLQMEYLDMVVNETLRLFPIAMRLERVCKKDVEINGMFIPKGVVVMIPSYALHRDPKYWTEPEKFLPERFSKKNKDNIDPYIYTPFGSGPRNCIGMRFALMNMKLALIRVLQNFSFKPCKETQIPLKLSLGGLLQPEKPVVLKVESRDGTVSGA
Sequence of T. cruzi CYP51 (Trypanosoma cruzi, UniProt Q7Z1V1) (Q7Z1V1 whole entry): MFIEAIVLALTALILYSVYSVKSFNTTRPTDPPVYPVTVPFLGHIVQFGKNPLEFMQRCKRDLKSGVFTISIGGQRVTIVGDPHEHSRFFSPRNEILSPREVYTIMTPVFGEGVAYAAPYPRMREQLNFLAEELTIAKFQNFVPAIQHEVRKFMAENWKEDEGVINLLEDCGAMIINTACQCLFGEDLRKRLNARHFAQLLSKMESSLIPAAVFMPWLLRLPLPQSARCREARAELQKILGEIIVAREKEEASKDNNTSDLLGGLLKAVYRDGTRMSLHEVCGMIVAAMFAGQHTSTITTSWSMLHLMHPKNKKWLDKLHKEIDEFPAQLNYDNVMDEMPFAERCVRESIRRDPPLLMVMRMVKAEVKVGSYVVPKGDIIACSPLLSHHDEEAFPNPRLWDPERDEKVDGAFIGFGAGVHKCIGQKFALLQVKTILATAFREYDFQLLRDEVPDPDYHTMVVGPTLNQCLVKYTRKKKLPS

On to `O=C(N[C@@H](Cn1ccnc1)c1ccc(Cl)cc1Cl)c1ccc(-c2nnc(-c3ccccc3)o2)cc1` [VNI, (R)-N-(1-(2,4-dichlorophenyl)-2-(1H-imidazol-1-yl)ethyl)-4-(5-phenyl-1,3,4-oxadiazol-2-yl)benzamide], for which, in [1], the “inhibition of T. cruzi CYP51 activity at 1:1 molar ratio to the enzyme” value is on record as “completely inhibit”. In addition, the “effect in the murine model of Chagas disease” value in data set [2] is reported as “Curative effect”. In addition, the “inhibition of T. brucei CYP51 activity at 1:1 molar ratio to the enzyme” value in data set [3] is reported as “completely inhibit”. Besides, the “CYP51 inhibition, Human (inhibitor/enzyme molar ratio for 50% inhibition)” value in data set [4] is listed as over 200. Moreover, binding in data set [5] was characterised by a dissociation constant (Kd) of 90 ± 10 nM. Also, the IC50 (commonly the point on the concentration scale where inhibition reaches its midpoint) in data set [6] is 405 ± 23 nM. In data set [7] (50 µM), the “Mammalian cell growth: % of viable 3T3 cells at 50 μM” value (shortened to “Mammalian cell growth: %”) is listed as 76.8 ± 2.1%. In addition, in [8], the concentration at 2 h is 40 µM and the concentration at 8 h is over 20 µM. Also, the “parasitemia in the mouse model of T. brucei infection” value in [9] is given as “slows down parasitemia”. The “induction of T. cruzi CYP51 gene expression” value in data set [10] was “do not induce”. The “inhibition of the human CYP51 ortholog” value in [11] is “do not inhibit”. For the same compound, in [12], the NOAEL – broadly, the highest dose or exposure tested at which no adverse effect was seen – at 48 h came to 400 mg/kg. The mortality entry in data set [13] was “neither leads to mortality”.

In the case of VNI/VNF combination, the IC50 in data set [14] amounted to 3580 ± 271 nM. The “CYP51 inhibition, Human (inhibitor/enzyme molar ratio for 50% inhibition)” value in data set [4] is reported as 15 ± 0.9. Further, in data set [7], the “Mammalian cell growth: %” value amounted to 77.2 ± 6.3%.

`O=C(N[C@H](Cn1ccnc1)c1ccc(Cl)cc1Cl)c1ccc(-c2nnc(-c3ccccc3)o2)cc1` (single isomer, unassigned) [VNI S-enantiomer] gave an IC50 in data set [14] of 290 ± 19 nM. Also, the “CYP51 inhibition, Human (inhibitor/enzyme molar ratio for 50% inhibition)” value in data set [4] is listed as over 200. For the same compound, the “Mammalian cell growth: %” value in data set [7] came out at 77.1 ± 2.6%.

As to `CC(=O)N1CCN(c2ccc(OCC3COC(Cn4ccnc4)(c4ccc(Cl)cc4Cl)O3)cc2)CC1` (stereo not drawn) [Ketoconazole, reference compound], the viability – broadly, a per cent measure of how many cells are alive, often set against a control – at 24 h, 50 µM in data set [15] was 0%.
